The term IC50 denotes the concentration at which inhibition is half-maximal.

For data set [1], the target named is T1, mouse P-gp (Mus musculus, UniProt P21447, N83Q/N87Q/N90Q). Nature of the data set: Yeast chemosensitization. Type of data set: cell-based. Conditions: for IYeast, inhibition in the yeast cytotoxicity assay: P-gp-expressing yeast, +10 μM DOX; for Chemosensitizing effect on P-gp-expressing yeast toward DOX (in words): cellular assay.
For data set [2], the target named is T1, mouse P-gp. Nature of the data set: biochemical.
Data set [3] addresses T1, mouse P-gp. Conditions: endrin vs its stereoisomer dieldrin.

T1 sequence (P21447 whole entry N83Q/N87Q/N90Q): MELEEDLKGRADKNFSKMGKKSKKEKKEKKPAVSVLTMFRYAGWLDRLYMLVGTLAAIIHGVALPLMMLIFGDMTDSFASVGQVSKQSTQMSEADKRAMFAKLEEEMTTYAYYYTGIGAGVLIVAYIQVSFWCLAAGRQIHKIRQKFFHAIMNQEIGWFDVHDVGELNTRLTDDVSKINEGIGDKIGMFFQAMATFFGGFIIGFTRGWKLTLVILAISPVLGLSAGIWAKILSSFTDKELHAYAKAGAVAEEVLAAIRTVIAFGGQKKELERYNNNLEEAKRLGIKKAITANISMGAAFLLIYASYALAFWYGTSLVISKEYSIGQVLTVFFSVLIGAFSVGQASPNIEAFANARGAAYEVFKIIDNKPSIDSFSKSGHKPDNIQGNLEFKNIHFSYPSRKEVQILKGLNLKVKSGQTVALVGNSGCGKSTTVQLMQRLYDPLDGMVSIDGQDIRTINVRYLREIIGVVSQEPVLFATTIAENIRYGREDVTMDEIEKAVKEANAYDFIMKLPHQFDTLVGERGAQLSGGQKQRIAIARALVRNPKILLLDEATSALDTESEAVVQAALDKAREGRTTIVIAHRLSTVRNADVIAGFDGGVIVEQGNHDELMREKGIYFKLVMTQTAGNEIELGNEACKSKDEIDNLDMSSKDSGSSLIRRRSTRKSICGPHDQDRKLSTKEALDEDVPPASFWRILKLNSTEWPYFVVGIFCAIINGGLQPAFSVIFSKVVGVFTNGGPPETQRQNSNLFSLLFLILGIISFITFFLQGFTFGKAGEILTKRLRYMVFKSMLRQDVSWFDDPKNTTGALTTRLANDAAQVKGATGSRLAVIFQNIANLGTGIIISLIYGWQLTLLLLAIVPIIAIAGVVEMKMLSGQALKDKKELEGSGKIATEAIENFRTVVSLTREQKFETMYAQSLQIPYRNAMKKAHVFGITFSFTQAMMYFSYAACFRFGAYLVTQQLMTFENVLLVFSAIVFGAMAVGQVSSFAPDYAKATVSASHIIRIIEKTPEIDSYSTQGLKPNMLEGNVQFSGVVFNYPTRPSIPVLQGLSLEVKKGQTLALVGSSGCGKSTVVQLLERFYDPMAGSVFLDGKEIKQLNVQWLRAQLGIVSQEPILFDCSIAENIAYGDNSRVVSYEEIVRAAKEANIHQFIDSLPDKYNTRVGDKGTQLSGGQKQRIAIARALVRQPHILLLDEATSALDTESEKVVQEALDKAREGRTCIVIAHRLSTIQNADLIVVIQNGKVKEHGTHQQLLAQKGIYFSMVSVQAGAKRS

`Clc1cc(Cl)c(-c2cc(Cl)c(Cl)cc2Cl)c(Cl)c1` [PCB-154]: the “IYeast, inhibition in the yeast cytotoxicity assay” value (from here on “IYeast, inhibition”) at mouse P-gp [1] is reported as “N”.
On the same count and under the same terms, in the case of `CCCCC(CC)COC(=O)c1ccccc1C(=O)OCC(CC)CCCC` (stereo not shown) [DEHP, di(2-ethylhexyl)phthalate] it was “N”; in that of `Clc1ccc(-c2cc(Cl)c(Cl)cc2Cl)cc1Cl` [PCB-118], “N”.
Consider `Brc1ccc(Oc2c(Br)cc(Br)cc2Br)c(Br)c1` [PBDE-100], for which half-maximal inhibition at mouse P-gp [2] (IC50) was put at 23.2 µM. Also, the “IYeast, inhibition” value on mouse P-gp [1] is listed as “Y”.
Regarding `Clc1cc(Cl)c(Cl)c(-c2c(Cl)cccc2Cl)c1Cl` [PCB-152], at mouse P-gp [1], the “IYeast, inhibition” value is listed as “N”.
The same measure, in the same setting: in the case of `Clc1ccccc1-c1c(Cl)c(Cl)c(Cl)c(Cl)c1Cl` [PCB-142] it was “Y”.
Same read-out and setting: in the case of `Clc1ccc(-c2c(Cl)c(Cl)cc(Cl)c2Cl)c(Cl)c1` [PCB-147] it was “Y”; in that of `Brc1c(Br)c(Br)c(Oc2c(Br)c(Br)c(Br)c(Br)c2Br)c(Br)c1Br` [PBDE-209], “N”.
As for `O=C(O)C(F)(F)C(F)(F)C(F)(F)C(F)(F)C(F)(F)C(F)(F)C(F)(F)F` [PFOA, perfluorooctanoic acid], the midpoint of inhibition on mouse P-gp [2], the IC50, lay at 156 µM. For the same compound, at mouse P-gp [1], the “IYeast, inhibition” value is recorded as “N”.
`Clc1cc(Cl)cc(-c2c(Cl)cc(Cl)c(Cl)c2Cl)c1` [PCB-161]: the “IYeast, inhibition” value at mouse P-gp [1] is given as “N”.
At mouse P-gp [2], `ClC1=C(Cl)[C@]2(Cl)[C@@H]3[C@@H]4C[C@@H]([C@H]5O[C@@H]45)[C@@H]3[C@@]1(Cl)C2(Cl)Cl` [Dieldrin] gave a half-inhibitory concentration (IC50) of 21.8 µM. On mouse P-gp [1], the “IYeast, inhibition” value is “Y” and the “Chemosensitizing effect on P-gp-expressing yeast toward DOX (in words)” value was “markedly lower inhibitory effect”.
`Clc1cc(-c2cc(Cl)c(Cl)c(Cl)c2)cc(Cl)c1Cl` [PCB-169]: at mouse P-gp [1], the “IYeast, inhibition” value is on record as “N”.
Consider `ClC1(Cl)C2(Cl)C3(Cl)C4(Cl)C(Cl)(Cl)C5(Cl)C3(Cl)C1(Cl)C5(Cl)C24Cl` (stereo not shown) [Mirex], for which, at mouse P-gp [2], the IC50 turned out to be 3 µM. For the same compound, the “IYeast, inhibition” value at mouse P-gp [1] was “N”.
Regarding `CC(C)(c1ccc(O)cc1)c1ccc(O)cc1` [Bisphenol A], the “IYeast, inhibition” value on mouse P-gp [1] is given as “N”.
Still for that read-out and setting: in the case of `Brc1ccc(Oc2cc(Br)ccc2Br)c(Br)c1` [PBDE-49] it was “Y”.
On mouse P-gp [2], `Cl[C@H]1[C@H](Cl)[C@@H](Cl)[C@@H](Cl)[C@H](Cl)[C@H]1Cl` [γ-HCH (lindane), lindane] returned an IC50 of 82.6 µM. The “IYeast, inhibition” value on mouse P-gp [1] was “N”.
For `ClC1=C(Cl)C2(Cl)C3C4C=CC(C4)C3C1(Cl)C2(Cl)Cl` (stereo not shown) [Aldrin], the 50% inhibitory concentration (IC50) against mouse P-gp [2] was found to be 26.2 µM. Besides, at mouse P-gp [1], the “IYeast, inhibition” value was “Y”.
Turning to `Clc1cccc(Cl)c1-c1c(Cl)c(Cl)c(Cl)c(Cl)c1Cl` [PCB-186], the “IYeast, inhibition” value at mouse P-gp [1] is “N”.
At mouse P-gp [2], `Cl[C@H]1[C@H](Cl)[C@H](Cl)[C@@H](Cl)[C@H](Cl)[C@H]1Cl` [α-HCH, α-hexachlorocyclohexane] had an IC50 of 26.8 µM. At mouse P-gp [1], the “IYeast, inhibition” value is on record as “N”.
For `Clc1cc(Cl)c(-c2c(Cl)cccc2Cl)c(Cl)c1Cl` [PCB-145], on mouse P-gp [1], the “IYeast, inhibition” value is on record as “Y”.
With `Clc1cc(Cl)c(-c2cc(Cl)c(Cl)c(Cl)c2)c(Cl)c1` [PCB-168], at mouse P-gp [1], the “IYeast, inhibition” value is given as “N”.
Take `ClC1=C(Cl)C2(Cl)C3C4CC(C5OC45)C3C1(Cl)C2(Cl)Cl` (stereo not shown) [Endrin]: the “Potency in ATPase assay relative to dieldrin” value at mouse P-gp [3] is reported as about 20 times. At mouse P-gp [2], this compound yielded a half-maximal inhibitory concentration (IC50) of 1.1 µM. Further, on mouse P-gp [1], the “IYeast, inhibition” value is recorded as “Y” and the “Chemosensitizing effect on P-gp-expressing yeast toward DOX (in words)” value is on record as “most pronounced chemosensitizing effect”.
As for `Cl[C@H]1[C@H](Cl)[C@@H](Cl)[C@H](Cl)[C@@H](Cl)[C@@H]1Cl` [β-HCH, β-hexachlorocyclohexane], at mouse P-gp [1], the “IYeast, inhibition” value is listed as “N”.
Same read-out and setting: for `O=S(=O)(O)C(F)(F)C(F)(F)C(F)(F)C(F)(F)C(F)(F)C(F)(F)C(F)(F)C(F)(F)F` [PFOS, perfluorooctane sulfonate] the value was “N”.
In turn, `ClC1=C(Cl)C2(Cl)C3C(Cl)C=CC3C1(Cl)C2(Cl)Cl` (stereo not shown) [Heptachlor] displayed a half-maximal inhibitory concentration (IC50) on mouse P-gp [2] of 10.4 µM. Further, on mouse P-gp [1], the “IYeast, inhibition” value was “N”.
Taken in the same sequence, the figures for `ClC(Cl)=C(c1ccc(Cl)cc1)c1ccc(Cl)cc1` [4,4′-DDE, dichlorodiphenyldichloroethylene] were 31.3 µM and “Y”.
At mouse P-gp [2], `COc1ccc(C(c2ccc(OC)cc2)C(Cl)(Cl)Cl)cc1` [Methoxychlor] registered an IC50 of 21.7 µM. Also, the “IYeast, inhibition” value at mouse P-gp [1] is “N”.
As to `Brc1ccc(Oc2ccccc2)cc1` [PBDE-3], on mouse P-gp [1], the “IYeast, inhibition” value is “N”.
The same measure, in the same setting: for `Clc1cc(Cl)c(-c2cc(Cl)c(Cl)cc2Cl)cc1Cl` [PCB-153] the value was “N”.

Values taken from publication PMC4846432 (Science Advances, 2016).
